# From patent US20150331992A1, “CANCER PROGNOSIS AND THERAPY BASED ON SYNTHEIC LETHALITY” (Ramot at Tel-Aviv University Ltd., priority 2014, published 2015)
# System: VHL-deficient and VHL-restored renal carcinoma cells (RCC4)
# Assay: Growth inhibition of VHL-deficient vs VHL-restored renal cells by drugs at mid-effective concentration
# Type: cell-based
# Details: mid-effective concentration of each drug; both cell lines in triplicates; FIG. 5
# Description: A range of concentrations for each drug were tested to identify a suitable working concentration in which there was an effect on cells growth, but not complete death (which is more likely to be due to non-specific toxicity).
row,SMILES,Sensitivity (percentage of growth inhibition) of VHL-deficient cells compared to isogenic cells in which pVHL was restored
1,CN(C)CCC=C1c2ccccc2CCc2ccccc21 [Amitriptyline],significantly more sensitive
2,Nc1ccncc1 [Dalfampridine],significantly more sensitive
3,CN(C)CCCN1c2ccccc2CCc2ccccc21 [Imipramine],significantly more sensitive
4,C[N+]1(CCCCC[N+]2(C)CCCC2)CCCC1 [Pentolinium],significantly more sensitive
5,COc1ccc(CCN(C)CCCC(C#N)(c2ccc(OC)c(OC)c2)C(C)C)cc1OC (centres unmarked) [Verapamil],significantly more sensitive
